{"source": "patent US9902964B2", "about": "“Growth arrested cells useful for producing compounds” (priority 2014, dated 2018)", "assay_type_in_all_cases": "cell-based, Escherichia coli", "key": {"[1]": {"system": "persister cells of MG1655", "experiment": "Antibiotic resistance of naturally occurring persister cells isolated by ofloxacin treatment (CFU count)", "conditions": "chloramphenicol 30 μg/ml, ampicillin 100 μg/ml, 4 h at 37° C.; P=0.3, unpaired t test", "description": "Persister cells were prepared in triplicate by ofloxacin treatment of stationary-phase cultures based on a previously described protocol (32). Overnight cultures of MG1655 cells grown in LB medium for 20 h were treated with ofloxacin for 3 h at 37° C., after which cells were pelleted, washed with fresh LB medium, pelleted again, and resuspended in antibiotic-free LB medium. After resuspension, chloramphenicol (30 μg/ml) and ampicillin (100 μg/ml) were added singly or in combination, and cells were incubated at 37° C. with shaking for 4 h. Samples were removed, pelleted once, washed with LB medium, resuspended, and serially diluted. A 10-μl volume of the serial dilutions was spot plated on an LB agar plate, which was incubated at 37° C. overnight. Colonies were counted the following day."}, "[2]": {"system": "HipA-arrested cells (MG1655/pHipA)", "experiment": "β-Lactam susceptibility of HipA-arrested cells (optical density, lysis)", "description": "Biological triplicates of MG1655/pHipA cells were inoculated into 30 ml of MOPS-M9 medium and grown at 37° C. until an OD600 of 0.5 was reached. aTc was added to reach 50 ng/ml, and the cultures were split into two 12-ml subcultures. At 2.5 h later, carbenicillin (100 μg/ml) was added to one subculture and optical densities were measured. For comparison of the levels of β-lactam tolerance of WT and ΔrelA cultures expressing HipA, biological triplicates of the WT/pHipA and ΔrelA/pHipA strains were inoculated into 5 ml of MOPS-M9 medium and grown at 37° C. HipA expression was induced with 50 ng/ml aTc when the OD600 reached ˜0.3. Ampicillin was added to reach a final concentration of 100 μg/ml 1.5 h later, and optical densities were monitored."}, "[3]": {"system": "MG1655/pHipA cells", "experiment": "Measurement of DNA and RNA concentrations in HipA-arrested cells", "conditions": "30 μg/ml chloramphenicol added 1 h after HipA induction", "description": "Cultures of MG1655/pHipA cells were inoculated into 40 ml of MOPS-M9 medium in 250-ml unbaffled Erlenmeyer flasks and incubated with shaking at 37° C. When the OD600 reached ˜0.3, aTc was added to reach 50 ng/ml. After 1 h of HipA induction, a sample was removed for DNA or RNA extraction, the cultures were split into two 15-ml cultures, and 30 μg/ml chloramphenicol was added to one of the cultures. For comparison of DNA and RNA synthesis results in WT and ΔrelA strains expressing HipA, biological triplicates of the WT/pHipA and ΔrelA/pHipA strains were grown in MOPS-M9 medium at 37° C. to an OD600 of 0.2 to 0.4, at which point HipA expression was induced by addition of aTc to 50 ng/ml. Samples were processed per a previously published protocol (27) using Picogreen (Invitrogen) for DNA quantification. RNA was quantified by measurement of fluorescence using the Quant-It assay (catalog no. Q33140; Invitrogen) following the manufacturer's instructions. Fluorescence was measured using a Spectromax M2 reader."}, "[4]": {"system": "ppGpp concentration within HipA-arrested cells", "experiment": "ppGpp measurements performed with HPLC in HipA-arrested cells", "conditions": "chloramphenicol treatment, within 15 min", "source_text": "ppGpp and nucleotides were extracted from cells grown on agar-supported nylon filters, following a protocol inspired by the rapid-quenching and metabolite extraction approach described in reference 25. We adopted this technique to avoid perturbing ppGpp levels with lengthy cell harvesting and extraction procedures, as the enzymes that generate and degrade ppGpp are known to respond rapidly to external conditions (26). Briefly, cells grown in liquid medium to an optical density at 600 nm (OD600) of ˜0.1 were transferred to nylon filters and adhered to solid agar plates containing our modified MOPS-M9 medium. […] Concentrations of ppGpp and GTP were measured using anion-exchange chromatography and a Partisil 5 Sax Rac II column (catalog no. 422-227; Hichrom Limited), with a silica Nova-Pak guard column (catalog no. WAT046845; Whatman) per a protocol described previously (26) and modified for brevity. […] The column temperature was maintained at 50° C., and absorbance was monitored at 254 nm. […]\nCultures of MG1655/pHipA cells were inoculated into 40 ml of MOPS-M9 medium in 250-ml unbaffled Erlenmeyer flasks and incubated with shaking at 37° C. […] Samples were processed per a previously published protocol (27) using Picogreen (Invitrogen) for DNA quantification. […] Fluorescence was measured using a Spectromax M2 reader."}}, "data": [{"compound": "CC1(C)S[C@@H]2[C@H](NC(=O)[C@H](N)c3ccccc3)C(=O)N2[C@H]1C(=O)O", "note": "[ampicillin]", "values": [{"measurement": "reduction in CFU of isolated persisters", "setting": "[1]", "value": "41%±13%"}, {"measurement": "ampicillin resistance of ΔrelA strain expressing HipA", "setting": "[2]; ampicillin 100 μg/ml, ΔrelA/pHipA strain, FIG. 9D", "value": "did not confer ampicillin resistance"}]}, {"compound": "CC1(C)S[C@@H]2[C@H](NC(=O)C(C(=O)O)c3ccccc3)C(=O)N2[C@H]1C(=O)O", "note": "(stereo partly drawn) [carbenicillin]", "values": [{"measurement": "lysis of HipA-arrested WT cells", "setting": "[2]; carbenicillin 100 μg/ml, HipA induced with 50 ng/ml aTc, FIG. 9C", "value": "did not induce lysis"}]}, {"compound": "O=C(N[C@H](CO)[C@H](O)c1ccc([N+](=O)[O-])cc1)C(Cl)Cl", "note": "[chloramphenicol]", "values": [{"measurement": "inhibition of DNA synthesis in HipA-arrested cells", "setting": "[3]; FIG. 9A", "value": "relieved inhibition"}, {"measurement": "inhibition of RNA synthesis in HipA-arrested cells", "setting": "[3]; FIG. 9B", "value": "relieved inhibition"}, {"measurement": "decrease of ppGpp concentration within HipA-arrested cells", "setting": "[4]", "value": "60% (±20%)"}]}]}
